Earlier results in patent US20240000717A1, “DRY POWDER ANTIVIRAL COMPOSITIONS AND THEIR USE FOR TREATING VIRAL INFECTION” (priority 2020, published 2024).

Tested on: hospitalized COVID-19 patients
Details: Pan et al., MedRxiv 2020

## CCC(CC)COC(=O)[C@H](C)N[P@](=O)(OC[C@H]1O[C@@](C#N)(c2ccc3c(N)ncnn23)[C@H](O)[C@@H]1O)Oc1ccccc1 [remdesivir, 2-ethylbutyl ((S)-(((2R,3S,4R,5R)-5-(4-aminopyrrolo[2,1-f][1,2,4]triazin-7-yl)-5-cyano-3,4-dihydroxytetrahydrofuran-2-yl)methoxy)(phenoxy)phosphoryl)-L-alaninate]
  effect on 28-day mortality: little or no effect
